Experimental data published in patent US9938335B2, “Glucagon and GLP-1 co-agonist compounds” (Eli Lilly and Company, priority 2015, dated 2018).
Marks after values point to notes of the source that are not given here.

Key:
Type in all cases: in vivo, mouse
DIO mice (C57BL/6) [1] = assay: Acute treatment in DIO mice (PCSK9, FGF-21, cholesterol)
Experimental: In order to investigate metabolic pathways involved with the treatment of compounds of the present invention independent of weight loss, compounds are tested in DIO mice (C57BL/6) acutely. The mice used are three to four months old on a high fat diet for at least 4 weeks. Animals are individually housed in a temperature-controlled (24° C.) facility with a 12 hour light/dark cycle (lights on 6:00), and free access to food and water. Vehicle or testing compounds were administered to mice by subcutaneous injection at 16:00 the day before the study day. Animals were sacrificed 16 hours later to collect blood via cardia puncture. Statistics are analyzed using ANOVA with Dunnett's comparison for JMP-6. Significance is denoted at p≤0.05 vs vehicle.
Food intake was decreased to a similar level in all treatment groups, which may indicate that changes in cholesterol, PCSK9 and FGF-21 are food-intake independent.

DIO mice (C57BL/6) [2] = assay: Effects on energy expenditure in DIO mice (indirect calorimetry); conditions: for Cumulative Heat (Kcal/kg lean mass/3 day): test article 15 nmol/kg, semaglutide 60 nmol/kg sc every three days
Experimental: Seven to eight months old male DIO mice (C57BL/6) weighing 45-50 g are used in this study to assess the effect of compounds of the present invention on energy metabolism. Animals are individually housed in a temperature-controlled (24° C.) facility with a 12 hour light/dark cycle (lights on 22:00), and free access to food (TD95217)(Teklad) and water. After 2 weeks acclimation to the facility, mice are randomized to treatment groups (N=6/group) based on body weight so each group has similar starting mean body weight. Animals are placed in a PhenoMaster/LabMaster calorimeter (TSE Systems, Chesterfield, Mo.) for 8 days of acclimation.
Heat and […] (RER) are measured by indirect calorimetry as described using an open-circuit calorimetry system. RER is the ratio of the volume of CO2 produced (VCO2) to the volume of O2 consumed (VO2). Heat is calculated with lean body weight considered. The energy expenditure is kcal/kg/3 day and expressed as mean±SEM of 6 mice per group. Statistical significance is assessed by two-way ANOVA followed by Tukey's multiple comparison test.

DIO mice (C57BL/6) [3] = assay: Chronic treatment in DIO mice (body weight, fat, food intake)
Experimental: The effects on food intake and body weight/fat are evaluated in DIO mice. Five to six months old DIO mice (C57BL/6) from Taconic Biosciences are used in this study. Animals are individually housed in a temperature-controlled (24° C.) facility with a 12 hour light/dark cycle (lights on 6:00), and free access to food and water. The mice are acclimated to the facility for two weeks. The day before the study start, fat mass is measured by nuclear magnetic resonance (NMR) using an Echo Medical System (Houston, Tex.) instrument. The mice are randomized to treatment groups (N=7/group) based on body weight and fat mass so each group had similar starting mean body weight and fat mass. […] SC injections are made on Day 1, 4, 7, 10, and 13. Body weight and food intake are measured right before each injection throughout the study. Percent changes in body weight are calculated as follows: […]
At the completion of the study, total fat mass is measured again by NMR. Statistics are analyzed using ANOVA with Dunnett's comparison by JMP 6. Significance is denoted at p≤0.05 vs. vehicle.

[4] = system: STZ-treated DIO mice (C57BL/6); assay: OGTT in Streptozotocin (STZ)-treated DIO mice; conditions: male STZ mice, OGTT (2 g/kg) 16 hours post injection
Experimental: STZ-treated mouse model is a model of early diabetes. Five to six months old male DIO mice (C57BL/6) from Taconic Biosciences are used in this study. Animals are individually housed in a temperature-controlled (24° C.) facility with a 12 hour light/dark cycle (lights on 6:00), and free access to food and water. After two weeks acclimation to the facility, mice are injected intraperitoneally with 50 mg/kg of STZ on Tuesday and Friday. Two weeks post the injection, animals with glucose levels between 180-300 mg/dL at 09:00 are selected for the OGTT study. The day before the study, animals are randomized into groups based on body weight and their glucose levels. Animals are treated with vehicle or testing articles by subcutaneous injection just prior to food removal overnight (16:00). The following morning at 08:00, 16 hours post compound injection, blood samples are taken to measure time zero glucose. Animals are given an oral dose of glucose of 2 g/kg. Glucose is measured 15, 30, 60, and 120 minutes post the oral glucose challenge. Statistics are analyzed using ANOVA with Dunnett's comparison by JMP 6. Significance is denoted at p≤0.05 vs. vehicle.

DIO mice (C57BL/6) [5] = assay: Oral Glucose Tolerance Test (OGTT) in DIO mice; conditions: male DIO mice, OGTT (2 g/kg) 16 hours post injection
Experimental: Diet-induced obese (DIO) mouse model is a model of insulin resistance. Five to six months old male DIO mice (C57BL/6) from Taconic Biosciences are used in this study. Animals are individually housed in a temperature-controlled (24° C.) facility with a 12 hour light/dark cycle (lights on 06:00), and free access to food and water. The acclimation period to the facility is two weeks. The day before the study, animals are randomized into groups based on their body weight. That same afternoon, animals are fasted in clean cages and dosed with vehicle (40 mM Tris-HCl, pH 8.0) or test articles by subcutaneous injection. The following morning, 16 hours post the peptide injection, fasting body weights are obtained to calculate glucose doses. Blood samples are taken to measure time zero glucose. Animals are then given an oral gavage of glucose (2 g/kg). Two glucose readings via glucometers were obtained at 15, 30, 60 and 120 minutes post oral glucose. The average of two glucose readings is reported at each time point and an area under the curve is calculated. Statistics were analyzed using ANOVA with Dunnett's comparison by JMP 6; significance is denoted at p≤0.05 vs. vehicle.

[6] = 30 nmol/kg sc, 16 hours post dose
[7] = 30 nmol/kg sc every three days for 15 days
[8] = 60 nmol/kg sc every three days for 15 days

semaglutide [reference compound]
Cholesterol (% of vehicle) (DIO mice (C57BL/6) [1]; [6]): 117.6 % of vehicle | FGF-21 (% of vehicle) (DIO mice (C57BL/6) [1]; [6]): 75 % of vehicle | PCSK9 (% of vehicle) (DIO mice (C57BL/6) [1]; [6]): 115.3 % of vehicle | serum cholesterol, PCSK9 and FGF-21 levels (DIO mice (C57BL/6) [1]; acute treatment): does not decrease serum cholesterol and PCSK9 levels and increase FGF-21 levels | metabolic rate (DIO mice (C57BL/6) [2]; DIO mice, chronic treatment): no effect on metabolic rate | Cumulative Heat (Kcal/kg lean mass/3 day) (DIO mice (C57BL/6) [2]; Day 1 to Day 4): 1973 ± 51 Kcal/kg lean mass/3 day | Cumulative Heat (Kcal/kg lean mass/3 day) (DIO mice (C57BL/6) [2]; Day 4 to Day 7): 2018 ± 54 Kcal/kg lean mass/3 day | Cumulative Heat (Kcal/kg lean mass/3 day) (DIO mice (C57BL/6) [2]; Day 7 to Day 10): 2151 ± 48 Kcal/kg lean mass/3 day | Cumulative Heat (Kcal/kg lean mass/3 day) (DIO mice (C57BL/6) [2]; Day 10 to Day 13): 2138 ± 46 Kcal/kg lean mass/3 day | Body Fat (% change vs. vehicle from Day 1) (DIO mice (C57BL/6) [3]; [7]): −20* % | Body Weight (% change vs. vehicle from Day 1) (DIO mice (C57BL/6) [3]; [7]): −8% | Body Fat (% change vs. vehicle from Day 1) (DIO mice (C57BL/6) [3]; [8]): −29* % | Body Weight (% change vs. vehicle from Day 1) (DIO mice (C57BL/6) [3]; [8]): −12* % | Glucose AUC (% of vehicle) ([4]; 1 nmol/kg sc): 72* % of vehicle | Glucose AUC (% of vehicle) ([4]; 3 nmol/kg sc): 53* % of vehicle | Glucose AUC (% of vehicle) ([4]; 10 nmol/kg sc): 35* % of vehicle | Glucose AUC (% of vehicle) (DIO mice (C57BL/6) [5]; 1 nmol/kg sc): 59* % of vehicle | Glucose AUC (% of vehicle) (DIO mice (C57BL/6) [5]; 3 nmol/kg sc): 51* % of vehicle | Glucose AUC (% of vehicle) (DIO mice (C57BL/6) [5]; 10 nmol/kg sc): 38* % of vehicle
